Patent US7199127B2, “Purine nucleosides” (United States of America, Represented by the Secretary, …, priority 2002, dated 2007)
Like-named read-outs stand apart in the source and are kept apart here.

Assays:
rA1 adenosine receptor = biological target: T1, rA1 adenosine receptor (Rattus norvegicus, UniProt P25099); assay: Binding of [3H]PIA to A1 (rat); settings: Cheng-Prusoff
T1 construct: Striatal and forebrain tissues from Wistar rats were homogenized in ice-cold 50 mM Tris.HCl buffer; from tissue; host or cells: Wistar rat brain membranes (forebrain for A1 is my own knowledge)
T1 sequence (P25099 1-326): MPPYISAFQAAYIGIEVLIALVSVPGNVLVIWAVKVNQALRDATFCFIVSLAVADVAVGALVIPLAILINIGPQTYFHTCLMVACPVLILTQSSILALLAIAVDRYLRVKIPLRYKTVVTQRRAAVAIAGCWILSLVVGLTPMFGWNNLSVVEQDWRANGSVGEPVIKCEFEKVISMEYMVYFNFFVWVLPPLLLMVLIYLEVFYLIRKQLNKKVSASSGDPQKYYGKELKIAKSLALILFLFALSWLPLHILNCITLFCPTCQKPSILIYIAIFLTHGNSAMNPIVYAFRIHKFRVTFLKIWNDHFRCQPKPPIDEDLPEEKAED
Procedure: (§3) The binding of [^3H]PIA ((R)-N^6-(phenylisopropyl)adenosine) to A1 and the binding of [^3H]CGS21680(2-[[[4-(2–Carboxyethyl-phenyl)ethylamino]-5′-N-thylcarbamoyl)adenosine) to A2a were measured as described below. Adenosine deaminase was added while the membrane was cultured at 30° C. for 30 min with the radioactive ligand. The IC50 values of each compound were determined for at least 6 different concentrations.
(§4) Striatal and forebrain tissues from Wistar rats were homogenized in ice-cold 50 mM Tris.HCl buffer, pH 7.4, using an electric homogenizer. The homogenate was centrifuged at 20,000 g for 10 min at 4° C., and the pellet was washed in fresh buffer. The final pellet was stored at −80° C. until the binding experiments.

rA2a adenosine receptor = biological target: T2, rA2a adenosine receptor (Rattus norvegicus, UniProt P30543); assay: Binding of [3H]CGS21680 to A2a (rat); settings: for % Displacement rA2a: 10 μM, [3H]CGS21680
T2 construct: Striatal and forebrain tissues from Wistar rats were homogenized in ice-cold 50 mM Tris.HCl buffer; from tissue; host or cells: Wistar rat brain membranes (striatum for A2a is my own knowledge)
Procedure: as §3, §4

hA3 adenosine receptor = biological target: T3, hA3 adenosine receptor (Homo sapiens, UniProt P0DMS8); assay: [125I]AB-MECA binding to membranes of CHO cells that express the A3 receptor; settings: for Ki: [125I]AB-MECA, CHO cell membrane, Cheng-Prusoff
T3 construct: expressed in transfected cells; host or cells: CHO cells (ATCC CCL-61)
T3 sequence (P0DMS8 1-318): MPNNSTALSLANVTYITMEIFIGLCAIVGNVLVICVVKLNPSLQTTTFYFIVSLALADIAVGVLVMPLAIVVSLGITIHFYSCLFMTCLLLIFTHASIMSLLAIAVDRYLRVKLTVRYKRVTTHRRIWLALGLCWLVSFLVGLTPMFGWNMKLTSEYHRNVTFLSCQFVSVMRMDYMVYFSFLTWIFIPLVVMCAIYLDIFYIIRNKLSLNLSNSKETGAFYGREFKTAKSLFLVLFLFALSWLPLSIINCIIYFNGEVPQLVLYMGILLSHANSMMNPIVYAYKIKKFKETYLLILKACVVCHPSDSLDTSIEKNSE
Procedure: Chinese hamster ovary (CHO, ATCC; US Cell Strain Bank No. CCL-61) cells that express the A3 receptor were cultured at 37° C. in the presence of 5% carbon dioxide in F-12 culture medium (Gibco Company, USA) containing 10% fetal bovine serum (FBS) and penicillin/streptomycin (100 U/mL and 100 μg/mL), and used.
The inhibitor is first dissolved in dimethyl sulfoxide and diluted with buffer solution. The final concentration of DMSO should not exceed 1%. After culturing at 37° C. for 1 h, it was quickly filtered using a cell collector (TOMTEC Company, USA) and a GF/B filter (Whatman Company, USA). The test tube was rinsed three times with 3 mL of buffer solution, and the radioactivity was measured using a γ-counter.
CHO (Chinese hamster ovary) cells expressing recombinant the human A3AR were cultured in DMEM supplemented with 10% fetal bovine serum, 100 units/mL penicillin, 100 μg/mL streptomycin, 2 μmol/mL glutamine and 800 μg/mL geneticin. The CHO cells expressing rat A3ARs were cultured in DMEM and F 12 (1:1). Cells were harvested by trypsinization. After homogenization and suspension, cells were centrifuged at 500 g for 10 min, and the pellet was re-suspended in 50 mM Tris HCl buffer (pH 8.0) containing 10 mM MgCl2, 1 mM EDTA and 0.1 mg/mL CHAPS. The suspension was homogenized with an electric homogenizer for 10 sec, and was then re-centrifuged at 20,000 g for 20 min at 4° C. The resultant pellets were resuspended in buffer in the presence of 3 Units/mL adenosine deaminase, and the suspension was stored at −80° C. until the binding experiments. Striatal and forebrain tissues from Wistar rats were homogenized in ice-cold 50 mM Tris.HCl buffer, pH 7.4, using an electric homogenizer. The homogenate was centrifuged at 20,000 g for 10 min at 4° C., and the pellet was washed in fresh buffer. The final pellet was stored at −80° C. until the binding experiments.
The mixtures were incubated at 37° C. for 60 min. Binding reactions were terminated by filtration through Whatman GF/B filters under reduced pressure using a MT-24 cell harvester (Brandell, Gaithersburgh, Md., USA). Filters were washed three times with 9 mL ice-cold buffer. Radioactivity was determined in a Beckman 5500γ-counter.

hA1 adenosine receptor = biological target: T4, hA1 adenosine receptor (Homo sapiens, UniProt P30542); assay: Binding of [3H]PIA to A1 (human); settings: Cheng-Prusoff
T4 sequence (P30542 1-326): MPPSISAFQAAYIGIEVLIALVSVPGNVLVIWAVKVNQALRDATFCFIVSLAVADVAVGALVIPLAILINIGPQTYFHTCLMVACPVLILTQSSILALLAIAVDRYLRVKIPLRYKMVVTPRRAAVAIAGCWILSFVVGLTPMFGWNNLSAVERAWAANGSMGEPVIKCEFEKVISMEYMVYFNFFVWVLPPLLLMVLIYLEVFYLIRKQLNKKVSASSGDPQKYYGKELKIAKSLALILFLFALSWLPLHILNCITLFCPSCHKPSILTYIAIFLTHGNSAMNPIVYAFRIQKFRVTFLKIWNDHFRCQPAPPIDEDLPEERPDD
Procedure: as §3

hA2a adenosine receptor = hA2a adenosine receptor (Homo sapiens, UniProt P29274); assay: Binding of [3H]CGS21680 to A2a (human); settings: for Ki: [3H]CGS21680, Cheng-Prusoff
Procedure: as §3

Sprague Dawley rats = assay: Toxicity test in rats; type: in vivo; settings: rats, 20, 10 and 1 mg/kg peritoneally, observed for 24 h
Procedure: (§1) Animal studies were carried out to test the toxicity of the compounds pared in the present invention.
(§2) 25±5 g ICR family mice (Joongang Study Animal) and 235±10 g specific pathogen free (SPF) Sprague Dawley rats (Joongang Study Animal) were divided into 3 groups.

ICR family mice = assay: Toxicity test in mice; type: in vivo; settings: mice, 20, 10 and 1 mg/kg peritoneally, observed for 24 h
Procedure: as §1, §2

[1] = [3H]CGS21680, Cheng-Prusoff, read-out: Ki rA2a

T2 sequence (P30543 whole entry): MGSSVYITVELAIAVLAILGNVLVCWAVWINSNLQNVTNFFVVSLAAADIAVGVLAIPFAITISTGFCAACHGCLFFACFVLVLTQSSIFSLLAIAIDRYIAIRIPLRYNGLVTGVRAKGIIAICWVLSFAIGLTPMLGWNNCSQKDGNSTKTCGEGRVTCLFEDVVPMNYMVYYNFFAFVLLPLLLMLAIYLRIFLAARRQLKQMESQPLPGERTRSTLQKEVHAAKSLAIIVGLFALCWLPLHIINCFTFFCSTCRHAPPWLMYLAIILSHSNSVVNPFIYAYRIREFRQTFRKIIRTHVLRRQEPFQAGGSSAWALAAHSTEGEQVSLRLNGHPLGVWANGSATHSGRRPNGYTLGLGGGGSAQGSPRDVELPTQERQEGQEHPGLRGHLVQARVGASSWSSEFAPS
hA2a adenosine receptor, sequence (P29274 whole entry): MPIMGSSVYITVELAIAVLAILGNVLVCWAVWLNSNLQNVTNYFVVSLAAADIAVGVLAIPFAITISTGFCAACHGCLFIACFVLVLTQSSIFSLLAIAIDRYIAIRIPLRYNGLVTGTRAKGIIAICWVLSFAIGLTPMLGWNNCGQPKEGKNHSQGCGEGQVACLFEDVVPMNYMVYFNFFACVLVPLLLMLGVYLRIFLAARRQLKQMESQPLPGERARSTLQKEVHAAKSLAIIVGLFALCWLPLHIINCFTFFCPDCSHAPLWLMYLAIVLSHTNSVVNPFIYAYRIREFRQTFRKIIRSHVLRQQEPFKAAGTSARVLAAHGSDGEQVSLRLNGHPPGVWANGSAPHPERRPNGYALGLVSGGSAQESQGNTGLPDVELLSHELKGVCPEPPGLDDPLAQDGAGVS

Ki (rA1 adenosine receptor) [µM] | % Displacement rA2a (rA2a adenosine receptor) [%] | Ki (hA3 adenosine receptor) [µM] | Ki (rA2a adenosine receptor; [1]) [µM] | Compound | further results
0.188 | <10 | – | – | CNC(=O)[C@]1(n2cnc3c(NCc4cccc(I)c4)nc(Cl)nc32)SC[C@H](O)[C@@H]1O [Compound 12, (2R,3S,4R)-2-[2-chloro-6-(3-iodobenzylamino)purin-9-yl)-3,4-dihydroxytetrahydrothiophene-2-carboxylic acid methyl amide] | melting point: 205 to 207 °C
0.127 | – | 0.0032 | 0.285 | OC[C@H]1S[C@@H](n2cnc3c(NCc4cccc(I)c4)nc(Cl)nc32)[C@H](O)[C@@H]1O [Compound 20, (2R,3R, 4S,5R)-2-[2-chloro-6-(3-iodobenzylamino)purin-9-yl]-5-hydroxymethyltetrahydrothiophene-3,4-diol] | melting point: 112 to 114 °C
0.78 | <10 | 0.0008 | – | CNc1nc(Cl)nc2c1ncn2[C@@H]1S[C@H](CO)[C@@H](O)[C@H]1O [Compound 23, (2R,3R,4S,5R)-2-(2-chloro-6-methylaminopurin-9-yl)-5-hydroxymethyltetrahydrothiophene-3,4-diol] | –
0.238 | – | 0.0049 | – | Nc1nc(Cl)nc2c1ncn2[C@@H]1S[C@H](CO)[C@@H](O)[C@H]1O [Compound 25, (2R,3R,4S,5R)-2-(2-chloro-6-aminopurin-9-yl)-5-hydroxymethyltetrahygrothiophene-3,4-diol] | Ki (rA2a adenosine receptor): 0.705 µM
0.14 | – | – | 0.348 | CNC(=O)[C@H]1S[C@@H](n2cnc3c(NCc4cccc(I)c4)nc(Cl)nc32)[C@H](O)[C@@H]1O [Compound 36] | Ki (hA2a adenosine receptor): 0.223 µM

Compound | Ki (rA1 adenosine receptor) [µM] | % Displacement rA2a (rA2a adenosine receptor) [%] | Ki (hA3 adenosine receptor) [µM] | Ki (rA2a adenosine receptor; [1]) [µM] | further results
CNC(=O)[C@H]1S[C@@H](n2cnc3c(N)nc(Cl)nc32)[C@H](O)[C@@H]1O [Compound 29] | 0.294 | <10 | 0.0004 | – | Ki (hA1 adenosine receptor): 0.0892 µM; Ki (hA2a adenosine receptor): 0.158 µM
CNC(=O)[C@H]1S[C@@H](n2cnc3c(NC)nc(Cl)nc32)[C@H](O)[C@@H]1O [Compound 33, (2S,3S,4R,5R)-5-(2-chloro-6-methylaminopurin-9-yl)-3,4-dihydroxytetrahydrothiophene-2-carboxylic acid methyl amide] | 0.198 | – | – | 6.34 | deaths (Sprague Dawley rats): no deaths were observed; symptoms (weight increase, feed intake) versus control group (Sprague Dawley rats): no other observable symptoms; Ki (hA1 adenosine receptor): 1.33 µM; % Displacement hA2a (hA2a adenosine receptor; 10 μM, [3H]CGS21680): 20%; A3 agonist activity (hA3 adenosine receptor; in words, compared with known compounds): most strong and selective A3 agonist activity among the known compounds; deaths (ICR family mice): no deaths were observed; symptoms (weight increase, feed intake) versus control group (ICR family mice): no other observable symptoms
